Common to all, as to assay type: cell-based
Test [1] deals with purified human Pan T-cells. The test can be described thus: T-cell exhaustion protocol (Dynabeads re-stimulation). As to conditions: peptides 2 mg/ml at each stimulation; for IL-2 signal at stimulation 2: supernatant ELISA. A general note: ELISA stands for enzyme-linked immunosorbent assay.
The subject of test [2] is antibody-initiated complement activation (human O sera and AB red blood cells). The test can be described thus: ABO incompatibility hemolytic assay of complement activity (CH50-type). As to conditions: for inhibition of complement activation in vitro, dose response: human AB red blood cells, human O plasma, increasing amounts of peptide. The method in brief:
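Type AB human erythrocytes (5.0×10^7) incubated with 15% (final) type O human serum and 0.5 mM peptide in GVBS^++, 1 h at 37 °C. Hemolysis read as supernatant absorbance at 412 nm, expressed as percent of the serum-plus-RBC positive control; means of three independent experiments ±SEM.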

For the next test, the target named is T1, PD-1/PD-L1 interaction (Homo sapiens, UniProt Q15116+Q9NZQ7).
T1 construct: host or cells: PD-1 effector cells; PD-L1 aAPC/CHO-K1 cells
The test can be described thus: PD-1/PD-L1 Blockade Bioassay (Promega). The following applies: increasing peptide concentrations. Summed up: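 PD-1 effector cells co-cultured with PD-L1 aAPC/CHO-K1 cells, with or without increasing concentrations of peptides; anti-PD-1 antibody as positive control. Blockade of PD-1/PD-L1 restores TCR signalling, read as NFAT-driven luciferase luminescence.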

Entries after “also recorded” stand apart in the source; their conditions may differ. Bridge positions count the residues as written; N and C are the ends. Square brackets hold non-standard residues; d marks the D form. Ends that are not written are not given here. Peptide text beside a SMILES is read from it. R8 = C=CCCCCCC[C@@](C)(N)C(=O)O; S5 = C=CCCC[C@](C)(N)C(=O)O; Sar = CNCC(=O)O

T1 sequence (Q15116 25-288): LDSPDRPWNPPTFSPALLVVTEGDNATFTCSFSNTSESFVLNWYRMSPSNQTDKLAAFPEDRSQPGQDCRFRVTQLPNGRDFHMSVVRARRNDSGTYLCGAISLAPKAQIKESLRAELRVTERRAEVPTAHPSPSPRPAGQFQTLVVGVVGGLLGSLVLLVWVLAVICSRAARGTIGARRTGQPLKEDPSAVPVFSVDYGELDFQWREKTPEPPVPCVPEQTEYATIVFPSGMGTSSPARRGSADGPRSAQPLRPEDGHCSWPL
T1 sequence (Q9NZQ7 19-290): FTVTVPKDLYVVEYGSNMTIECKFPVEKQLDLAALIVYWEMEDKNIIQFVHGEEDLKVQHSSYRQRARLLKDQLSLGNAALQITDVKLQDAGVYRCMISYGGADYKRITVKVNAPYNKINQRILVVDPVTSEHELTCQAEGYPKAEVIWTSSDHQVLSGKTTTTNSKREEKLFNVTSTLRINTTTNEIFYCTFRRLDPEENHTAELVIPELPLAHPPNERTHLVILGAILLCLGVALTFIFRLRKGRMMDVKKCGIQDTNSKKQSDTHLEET

For `CC[C@H](C)[C@H](N)C(=O)N[C@]1(C)CCCCCCC=CCCC[C@@](C)(C(=O)N[C@@H](CS)C(=O)N[C@@H](CCC(N)=O)C(=O)N[C@@H](CCC(=O)O)C(=O)N[C@@H](CCCNC(=N)N)C(=O)N[C@@H](C)C(=O)N[C@@H](C)C(=O)O)NC(=O)CN(C)C(=O)[C@@H]2CCCN2C(=O)[C@H](CCC(=O)O)NC(=O)[C@H](CC(C)C)NC(=O)[C@H]([C@@H](C)CC)NC(=O)[C@H](CC(C)C)NC1=O` [PA-0115, IR8LILEP(Sar)S5CQERAA] (H-I[R8]LILEP[Sar][S5]CQERAA-OH; staple 2-9), the “IL-2 signal at stimulation 2” value in test [1] is listed as “did not”. The “inhibition of ABO incompatible hemolysis compared to PA-I8Sar” value in test [2] (peptide 0.8 mg/ml (~0.5 mM)) is “enhanced activity”. Also, the “inhibition of PD-1/PD-L1 inhibitory signaling (luminescence)” value (from here on “inhibition … (luminescence)”) at PD-1/PD-L1 interaction is recorded as “did not show PD-1/PD-L1 inhibitory activity”.
As for `CC[C@H](C)[C@H](N)C(=O)N[C@@H](C)C(=O)N[C@@H](CC(C)C)C(=O)N[C@H](C(=O)N[C@@H](CC(C)C)C(=O)N[C@@H](CCC(=O)O)C(=O)N1CCC[C@H]1C(=O)N(C)CC(=O)N[C@@H](CS)C(=O)N[C@@]1(C)CCCC=CCCC[C@@](C)(C(=O)N[C@@H](C)C(=O)O)NC(=O)[C@H](CCCNC(=N)N)NC(=O)[C@H](CCC(=O)O)NC(=O)[C@H](CCC(N)=O)NC1=O)[C@@H](C)CC` [PA-0117, IALILEP(Sar)CS5QERS5A] (H-IALILEP[Sar]C[S5]QER[S5]A-OH; staple 10-14), the “Caspase 3/7 levels” value in test [1] (eighth day) is given as “very low to undetectable levels of Caspase 3/7”. Besides, the “IL-2 signal at stimulation 2” value in test [1] is recorded as “showed an IL-2 signal at stimulation 2”. On PD-1/PD-L1 interaction (listed as RLS-0117), the “inhibition … (luminescence)” value is recorded as “increase in luminescence indicative of inhibition of PD-1/PD-L1 inhibitory signaling; also recorded: able to inhibit PD-1/PD-L1 mediated cell signaling”.
As for “IALILEP(Sar)CCQERA (IALILEP[Sar]CCQERA; cysteine pairing not given here) [RLS-0133*]”, in test [1], the “IL-2 signal at stimulation 2” value is on record as “did not”. In test [2], the “inhibition of complement activation in vitro, dose response” value is “dose-dependently inhibited complement activation; also recorded: inhibit complement activation”. The “inhibition … (luminescence)” value in the test with PD-1/PD-L1 interaction is “increase in luminescence indicative of inhibition of PD-1/PD-L1 inhibitory signaling; also recorded: able to inhibit PD-1/PD-L1 mediated cell signaling”.
For “IALILEP(Sar)dCCQERRA (IALILEP[Sar][dC]CQERRA; cysteine pairing not given here) [RLS-0127*]” the same measures were “showed an IL-2 signal at stimulation 2”, “dose-dependently inhibited complement activation; also recorded: very similar levels of inhibition to the positive control; also recorded: inhibit complement activation” and “increase in luminescence indicative of inhibition of PD-1/PD-L1 inhibitory signaling; also recorded: able to inhibit PD-1/PD-L1 mediated cell signaling”.

The values above are taken from patent publication US20230272012A1, “PEPTIDES AND METHODS OF USE” (REALTA LIFE SCIENCES, INC., priority 2020, published 2023).
